Experimental data reported in patent US6811998B2, “Conjugates of uncompetitive inhibitors of inosine monophosphate dehydrogenase” (priority 1999, dated 2004).

Legend:
IMPDH II [1] = biological target: T1, IMPDH II (Homo sapiens, UniProt P12268); experiment: Inhibition constants of ligand inhibitors: NADH formation at 340 nm, 10 minutes, 40° C.; assay type: biochemical; details: IMPDH II 0.00065 U/ml, non-linear curve fit
IMPDH II [2] = biological target: T1, IMPDH II; experiment: IC50 by slightly different method: enzyme rate on HITACHI 917 as in Examples 20 and 29, no antibody, saline sample; assay type: biochemical; design: made in house; host or cells: E. coli; details: values marked *: HITACHI 917 method
Procedure: One liter of an enzyme reagent, or second reagent, was prepared as follows. Approximately 800 ml deionized water was dispensed into a container and 168.8 grams of NaTAPSO was added and completely dissolved. Next, 1.15 grams of TCEP was dissolved. Next 31.4 grams of IMP was dissolved, then 2.23 grams of Na2EDTA were dissolved. Next 1.0 gram of SUTTOCIDE A was dissolved. The volume was adjusted to one liter with deionized water. Enough recombinant human IMPDH-II was added (as a 35% ammonium sulfate precipitate of an E. coli lysate supernatant) and dissolved completely in order to achieve a change in absorbance at 340 nm of 780×10^−4 over 5 minutes at 37° C. […]
(§1) An HITACHI 917 analyzer (Roche Diagnostics Corp., Indianapolis) was programmed to dispense 3 μl of sample and 150 μl of antibody reagent into a 37° C. cuvette, which were then mixed and incubated for 5 minutes after which time 150 μl of enzyme reagent was added and mixed. The rate at 340 nm (mA/min) was calculated during the period 3 minutes 13 seconds to 4 minutes 42 seconds (read window 29-34) following enzyme reagent addition.
One liter of a second reagent was prepared as follows. […] Enough recombinant human IMPDH-II was added (as a 35% ammonium sulfate precipitate of an E. coli lysate supernatant) and dissolved completely in order to achieve a change in absorbance at 340 nm of 3100×10^−4 over 5 minutes at 37° C. […]

IMPDH II [3] = biological target: T1, IMPDH II; experiment: Homogeneous enzyme immunoassay with ligand-inhibitor conjugate (thyroxine and theophylline); assay type: biochemical; design: made in house; host or cells: E. coli; details: compared with MPA-theophylline
Procedure: as §1
Saline samples spiked with theophylline were assayed using the method of the present invention. Theophylline (Sigma Chemical) was first dissolved in saline (1 mg/10 ml) and then diluted to achieve concentrations of 0, 5, 10, 20, 40 and 50 μg/ml. An HITACHI 717 analyzer (Roche Diagnostics Corp., Indianapolis) was programmed to dispense 3 μl of sample and 150 μl of first reagent into a 37° C. cuvette, which were then mixed and incubated for 5 minutes, after which time 150 μl of second reagent was added and mixed. The difference in absorbance at 340 nm was calculated from the initial addition of the second reagent to 5 minutes following the second reagent addition.
J. Org. Chem. 61, 2236-2241, (1996).

IMPDH-I = IMPDH-I (Homo sapiens, UniProt P20839); details: read-out: Ki (IC50), J. Biol. Chem. 268, 27286-27290 (1993); cited from earlier work
IMPDH II [4] = biological target: T1, IMPDH II; experiment: IMPDH activity as a function of ligand-inhibitor conjugate, antibody and analyte concentration (HITACHI 717, NADH at 340 nm); assay type: biochemical; design: made in house; host or cells: E. coli
Procedure: One liter of an antibody reagent, or first reagent, was prepared as follows. Approximately 800 ml deionized water was dispensed into a container and 6.0 grams of ACES were added and dissolved. The pH was adjusted to 6.0 with 2N NaOH. Then 0.53 grams NAD were added and dissolved completely. Next 10 ml ascites anti-MPA monoclonal antibody was added. Then 0.95 grams sodium azide was added and dissolved, and finally 1.0 gram of SUTTOCIDE A (GAF Chemicals Corp.) was added and dissolved. The volume was adjusted to one liter with deionized water.
One liter of an enzyme reagent, or second reagent, was prepared as follows. Approximately 800 ml deionized water was dispensed into a container and 56.3 grams of NaTAPSO was added and completely dissolved. Then 81.6 grams of sodium acetate-3H2O were added and dissolved. Next, 1.15 grams of TCEP were added and dissolved. Next 0.319 grams of IMP were added and dissolved, then 2.23 grams of Na2EDTA were added and dissolved. Next 1.0 gram of SUTTOCIDE A was added and dissolved. The volume was adjusted to one liter with deionized water. Approximately 13.4 ml of recombinant human IMPDH-II were added (E. coli lysate) and dissolved completely in order to achieve a change in absorbance at 340 nm of 4400×10^−4 over 5 minutes at 37° C. Next 0.002 grams of ligand-inhibitor conjugate (MPA-MPA, Example 42) were added and dissolved.
Human plasma samples spiked with mycophenolic acid were assayed for MPA using the present invention. An HITACHI 717 analyzer (Roche Diagnostics Corp. Indianapolis) was programmed to dispense 3 μl of sample and 150 μl of antibody reagent into a 37° C. cuvette, which were then mixed and incubated for 5 minutes after which time 150 μl of enzyme reagent was added and mixed. The difference in absorbance at 340 nm was calculated from the initial addition of enzyme reagent to 5 minutes following enzyme reagent addition.
With sample set A, the reagents contained no antibody or ligand-inhibitor and produced maximum IMPDH activity. With sample set B, the enzyme reagent contained ligand inhibitor and was used to show the effect of ligand inhibitor on IMPDH activity.

IMPDH = experiment: Sensitivity of mycophenolic acid inhibition of IMPDH; assay type: biochemical

Sequence of IMPDH-I (P20839 whole entry): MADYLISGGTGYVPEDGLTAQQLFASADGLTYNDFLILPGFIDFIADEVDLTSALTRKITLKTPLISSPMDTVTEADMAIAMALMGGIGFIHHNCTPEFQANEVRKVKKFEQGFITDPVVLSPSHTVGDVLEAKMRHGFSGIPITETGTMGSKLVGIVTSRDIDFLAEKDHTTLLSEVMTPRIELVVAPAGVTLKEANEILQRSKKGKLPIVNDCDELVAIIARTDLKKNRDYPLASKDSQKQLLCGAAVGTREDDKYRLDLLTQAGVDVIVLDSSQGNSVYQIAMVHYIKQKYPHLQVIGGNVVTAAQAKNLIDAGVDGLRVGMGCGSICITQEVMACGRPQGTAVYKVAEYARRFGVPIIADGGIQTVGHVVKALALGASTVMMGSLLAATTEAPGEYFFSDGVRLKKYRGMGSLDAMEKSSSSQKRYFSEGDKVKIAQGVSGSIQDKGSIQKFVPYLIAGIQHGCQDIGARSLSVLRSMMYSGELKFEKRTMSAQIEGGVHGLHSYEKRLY

5′-(digoxigenin-3-yl-β-amidomethyl)-MPA [16A]
IC50 (IMPDH II [1]): 170 nM

5′-(digoxigenin-3-yl-β-amidomethyl)-MPA [16B]
IC50 (IMPDH II [1]): 68 nM

5′-[(digoxigenin-3-yl)-oxymethylcarbonyl-DADOO-carbonylmethyl]-MPA [compound 26]
IC50 (IMPDH II [1]): 170 nM

5′-[(gentamicin[C1a]-N^1-carbonyl-oxy)-isoprenyl]-MPA
IC50 (IMPDH II [1]): 660 nM

5′-[(gentamicin[C1a]-N^1-terephthaloyl)-amino-isoprenyl]-MPA [U]
IC50 (IMPDH II [1]): 270 nM

5′-[(isoprenyloxycarbonylaminoethyleneamido)-thyroxine]-MPA [compound 11]
IC50 (IMPDH II [2]): 83 nM
sensitivity in an immunoassay (IMPDH II [3]): greater sensitivity

5′-[(phenytoin-3-butyramido)-isoprenyl]-MPA
IC50 (IMPDH II [1]): 88 nM

5′-[(theophylline-8-butyramidoethylaminocarbonyloxy)-isoprenyl]-MPA [compound 20]
IC50 (IMPDH II [2]): 250 nM

COc1c(C)c2c(c(O)c1C/C=C(\C)CCC(=O)O)C(=O)OC2 [MPA, mycophenolic acid]
Ki (IMPDH-I): 37 nM
ΔA × 10^−4 @ 340 nm (IMPDH II [4]; set A: sample MPA 5 μg/ml, no anti-MPA, no MPA—MPA): 1939 × 10^−4
ΔA × 10^−4 @ 340 nm (IMPDH II [4]; set A: sample MPA 10 μg/ml, no anti-MPA, no MPA—MPA): 541 × 10^−4
ΔA × 10^−4 @ 340 nm (IMPDH II [4]; set E: sample MPA 5 μg/ml, anti-MPA 1:100, no MPA—MPA): 4075 × 10^−4
ΔA × 10^−4 @ 340 nm (IMPDH II [4]; set E: sample MPA 10 μg/ml, anti-MPA 1:100, no MPA—MPA): 3667 × 10^−4
sensitivity of mycophenolic acid inhibition (IMPDH): 10 to 20 nM

MPA-isoprenyl alcohol [3A]
IC50 (IMPDH II [1]): 48 nM

MPA-isoprenyl alcohol [3B]
IC50 (IMPDH II [1]): 13 nM
